In patent US7579488B2 (Eli Lilly and Company, priority 2003, dated 2009):
“And” between values parts separate entries of the source, which are not always exact repeats. Equal entries are not always repeated. Where two headings read alike, the source gives them in different places.

What was measured:
KERtr cells = experiment: Keratinocyte proliferation assay; assay type: cell-based; details: Homo sapiens, read-out: Kera. Prolif. IC50
Description: 5. The Keratinocyte Proliferation Assay
This Assay is indicative for the treatment of psoriasis.
(5) The Keratinocyte Proliferation Assay:
KERtr cells (Human skin keratinocyte transformed with a retrovirus vector, obtained from ATCC) were plated in 96-well flat-bottomed plates (3000 cells/well) in 100 μl keratinocyte serum free medium supplemented with bovine pituitary extract in the absence of EGF (Life Technologies, Rockville, Md.) and incubated at 37° C. for two days. The cells were treated with various concentrations of VDR ligands (ten-fold serial dilution from 10,000 nM to 0.1 nM in triplicate), dissolved in 100 μl keratinocyte serum free medium supplemented with bovine pituitary extract in the absence of EGF and incubated at 37° C. for 72 hr. […] Potency values (IC50) values were determined as the concentration (nM) of compound that elicited a half-maximal response.

rat osteocalcin promoter = experiment: OCN (osteocalcin) promoter assay; assay type: cell-based; details: RG-15 (ROS 17/2.8) cells
Description: 3. The OCN (Osteocalcin) Promoter Assay
The OCN Promoter Assay is an indicator and marker for osteoporosis. […] Preferred assay results are less than 50 nM.
(3) Materials and Method for The OCN Promoter Assay:
The activation of osteocalcin by VDR ligands was evaluated in a rat osteoblast-like cell line RG-15 (ROS 17/2.8) stably expressing rat osteocalcin promoter fused with luciferase reporter gene. […] Confluent RG-15 cells maintained in DMEM/F-12 medium (3:1) containing 5% FBS, 300 μg/ml G418 and at 37° C. under 5% CO2/95% air atmosphere were trypsinized (0.25% trypsin) and plated into white opaque 96-well cell culture plates (25000 cells/well). After 24 hr, cells (in DMEM/F-12 medium+2% FBS) were treated with various concentrations of compounds, dissolved in DMSO. The final DMSO concentration remained at 0.01% (v/v). After 48 hr treatment, the medium was removed, cells were lysed with 50 μl of lysis buffer (From Luciferase reporter assay system, Roche Diagnostics, Indianapolis, Ind.) and assayed for luciferase activity using the Luciferase Reporter Gene Assay kit from Boehringer Mannheim as per manufacturer's specifications.

female DBF mice = experiment: Mouse hypercalcemia assay; details: oral gavage for 6 days
Description: The Mouse Hypercalcemia Assay
The Mouse Hypercalcemia Assay is a six day hypercalcemia test for toxicity and selectivity.
(4) Materials and Method for the Mouse Hypercalcemia Assay:
Weanling, virus-antibody-free, five to six weeks old female DBF mice (Harlan, Indianapolis, Ind.) are used for all the studies. Animals are allowed to acclimate to local vivarium conditions for 2 days. […] The animals then are divided into groups with 4-5 mice per group. Different doses of test compounds prepared in 10% Ethanol and 90% sesame oil are administered to mice orally via gavage for 6 days. 1α-25(OH)2D3 0.5 μg/kg/d was also given to one group of mice as the positive control. […] Raw data of group differences is assessed by analysis of variance (ANOVA) using Fisher's protected least significant difference (PLSD) where the significance level was P<0.05.

VDR = target: T1, VDR (Homo sapiens, UniProt P11473); experiment: VDR CTF (Caco-2 cell co-transfection) assay; assay type: cell-based; details: Caco-2 cells, pGal4-VDR-LBD co-transfection, luciferase; several values separated by /
T1 construct: the receptor expression vector pGal4-VDR-LBD (10 ng); expressed in transfected cells; host or cells: Caco-2 cells
T1 sequence (P11473 127-423 limits assumed): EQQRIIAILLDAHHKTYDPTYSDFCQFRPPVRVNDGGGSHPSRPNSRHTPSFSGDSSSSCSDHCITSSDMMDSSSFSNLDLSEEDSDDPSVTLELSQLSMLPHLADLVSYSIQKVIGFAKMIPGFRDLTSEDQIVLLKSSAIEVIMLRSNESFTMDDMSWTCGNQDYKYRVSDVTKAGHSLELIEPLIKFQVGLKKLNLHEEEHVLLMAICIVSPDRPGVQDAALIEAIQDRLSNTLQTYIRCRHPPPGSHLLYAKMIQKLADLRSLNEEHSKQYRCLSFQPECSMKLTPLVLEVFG
Description: 2. The Caco-2 Cell Co-Transfection Assay:
The Caco-2 cell assay is an indicator for the undesirable condition of hypercalcemia. This co-transfection assay is a surrogate assay for in vivo calcemic activity of VDR ligands. […] Preferred assay results are greater than 1000 nM.
(2) Materials and Method for the Caco-2 Cell Assay:
Caco-2 cells, grown in phenol red free, DMEM (Invitrogen, Carlsbad, Calif.) containing 10% charcoal-stripped FCS (Hyclone, Logan, Utah), were transfected with Fugene 6 reagent (Roche Diagnostics, Indianapolis, Ind.). Cells (5000/well) were plated 18 h before transfection in a 96 well plate. The Cells were transfected with Gal4-responsive reporter pFRLuc (150 ng, Stratagene, La Jolla Calif.) and the receptor expression vector pGal4-VDR-LBD (10 ng), along with Fugene 6 reagent (0.2 μl/well). The DNA-Fugene complex was formed by incubating the mixture for 30 min at room temperature. The cells were transfected in triplicate for 5 h, and treated with various concentrations of VDR ligands (form 0.01 nM to 10,000 nM concentration range) 18 h post-transfection. The luciferase activity was quantified using Steady-Glo reagent kit (Promega, Madison, Wis.) as per manufacturer's specifications.

RXR-VDR heterodimer = target: T2, RXR-VDR heterodimer (Homo sapiens, UniProt P11473); experiment: RXR-VDR heterodimerization assay (SaOS-2 cells); assay type: cell-based; details: Gal4-RXR-DEF/VP16-VDR-LBD luciferase reporter, several values in a cell separated by /
T2 construct: Add the Gal4-RXR-DEF and VP16-VDR-LBD; expressed in transfected cells; host or cells: SaOS-2 cells
T2 sequence (P11473 127-423 limits assumed): T1 sequence (P11473 127-423 limits assumed)
T2 sequence (P19793 201-462 partner limits assumed): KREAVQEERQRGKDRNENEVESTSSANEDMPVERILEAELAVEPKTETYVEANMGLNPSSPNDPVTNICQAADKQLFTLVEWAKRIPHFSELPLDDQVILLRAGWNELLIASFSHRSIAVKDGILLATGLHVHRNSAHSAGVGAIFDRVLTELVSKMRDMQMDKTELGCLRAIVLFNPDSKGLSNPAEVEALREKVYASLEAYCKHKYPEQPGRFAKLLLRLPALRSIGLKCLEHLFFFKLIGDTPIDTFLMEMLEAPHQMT
Description: 1. The RXR-VDR Heterodimer Assay:
This assay provides the VDR activity of a test compound.
(1) Materials and Method for RXR-VDR Heterodimerization Assay:
Luciferase Assay Reagent: • Use Steady-Glo Luciferase Reagent from Promega (Cat #E2550) Consists of: a. E2533 Assay Substrate, lyopholized product and b. E2543 Assay Buffer. • Thaw at room temperature • Store Cell Harvesting Aspirate media from culture flask, rinse cells with HBSS and aspirate. Add trypsin and incubate. When cells appear detached, resuspend cells in growth media. Transfer into a new flask with fresh growth media for passaging the cells. Plate well plates and two extra plates A. Cell Count Mix the cell suspension using pipette Use Hematocytometer to count the cells Load cell suspension onto the hemocytometer chamber Count cells. […] In sterile flask add cell suspension to plating media. Mix. Add cells/well. Place the cells in the incubator. Cells should be about 75% confluent prior to transfection. DAY 2: Transfection Step 1: DNA and Media Add plain DMEM media to tubes for mixing the DNA Add the Reporter gene pFR-LUC Add the Gal4-RXR-DEF and VP16-VDR-LBD Step 2: FuGENE and Media Prepare plain DMEM media in a ubes for mixing FuGENE Add FuGENE 6 Transfection Reagent Incubate Step 3: FuGENE, DNA and Media Complex Add FuGENE Media complex from step 2 to DNA Media complex from step 1 Incubate Step 4: FuGENE, DNA and Media Complex to-well plate Add FuGENE-DNA-Media complex from step 3 to each plate Incubate. […] Day 4: Luciferase Assay Read the plates after drug treatment Remove part of media from all the wells and leave remainder Add Steady-Glo Luciferase Reagent mixture/wells Incubate Count each well using a Luminescence counter, Top Count NXT by Packard
Set a delay between plates to reduce the background.

[1] = Rattus norvegicus, comparison compounds
[2] = 72 h, BrdU incorporation, several values separated by /
[3] = Rattus norvegicus, 48 h, 48 hr treatment, luciferase, several values separated by /
[4] = serum ionized calcium 6 hours after last dosing
[5] = 48 hr treatment, luciferase, several values separated by /

Row | Structure (SMILES) | EC50 (VDR) | IC50 (KERtr cells; [2]) | EC50 (rat osteocalcin promoter; [3]) | EC50 (RXR-VDR heterodimer) | further results
1 | CCC(CC)(c1ccc(OCC(=O)C(C)(C)C)c(C)c1)c1ccc(OCC(=O)C(C)(C)C)c(C)c1 [DD, reference compound] |  |  |  |  | IC50 (KERtr cells; comparison compounds): 1060 nM; EC50 (rat osteocalcin promoter; [1]): 31.1 nM; Mouse Hypercal (female DBF mice; comparison compounds): 1000 µg/kg/day
2 | CCC(CC)(c1ccc(OCC(=O)C(C)(C)C)c(C)c1)c1ccc(OC[C@H](O)C(C)(C)C)c(C)c1 [EE, reference compound] |  |  |  |  | EC50 (rat osteocalcin promoter; [1]): 341 nM; Mouse Hypercal (female DBF mice; comparison compounds): 1000 µg/kg/day
3 | CCC(CC)(c1ccc(OCC(=O)C(C)(C)C)c(C)c1)c1cc2ccc(C(=O)O)cc2o1 [Ex 18, 2-{1-[4-(3,3-dimethyl-2-oxo-butoxy)-3-methyl-phenyl]-1-ethyl-propyl}-benzofuran-6-carboxylic acid] | 472 nM | 25 nM | 2 nM |  | Mouse Hypercal (female DBF mice; [4]): >300 µg/kg/day
4 | CCC(CC)(c1ccc(OCC(=O)C(C)(C)C)c(C)c1)c1cc2ccc(C(=O)NCC(=O)O)cc2o1 [Ex 20, [(2-{1-[4-(3,3-Dimethyl-2-oxo-butoxy)-3-methyl-phenyl]-1-ethyl-propyl}-benzofuran-6-carbonyl)-amino]-acetic acid] | 773 nM | 1000 nM |  | 264 nM and 68 nM | 
5 | CCC(CC)(c1ccc(OCC(=O)C(C)(C)C)c(C)c1)c1cc(C)c2oc(C(=O)NCC(=O)O)cc2c1 [Ex 28, [(5-{1-[4-(3,3-dimethyl-2-oxo-butoxy)-3-methyl-phenyl]-1-ethyl-propyl}-7-methyl-benzofuran-2-carbonyl)-amino]-acetic acid] |  | 11 nM | 4 nM |  | Mouse Hypercal (female DBF mice; [4]): >1000 µg/kg/day
6 | CCC(CC)(c1ccc(OCC(O)C(C)(C)C)c(C)c1)c1ccc2oc(C(=O)NCC(=O)O)cc2c1 (centres unmarked) [Ex 33, [(5-{1-ethyl-1-[4-(2-hydroxy-3,3-dimethyl-butoxy)-3-methyl-phenyl]-propyl}-benzofuran-2-carbonyl)-amino]-acetic acid] | 178 nM |  | 0.4 nM | 9 nM | 
7 | CCC(CC)(c1ccc(OCC(=O)C(C)(C)C)c(C)c1)c1ccc2oc(C(=O)O)c(C)c2c1 [Ex 34, 5-{1-[4-(3,3-Dimethyl-2-oxo-butoxy)-3-methyl-phenyl]-1-ethyl-propyl}-3-methyl-benzofuran-2-carboxylic acid] | 896 nM |  | 13 nM |  | EC50 (rat osteocalcin promoter; [5]): 21 nM; Mouse Hypercal (female DBF mice; [4]): >3000 µg/kg/day
8 | CCC(CC)(c1ccc(OCC(O)C(C)(C)C)c(C)c1)c1ccc2oc(C(=O)O)c(C)c2c1 (centres unmarked) [Ex 35, 5-{1-Ethyl-1-[4-(2-hydroxy-3,3-dimethyl-butoxy)-3-methyl-phenyl]-propyl}-3-methyl-benzofuran-2-carboxylic acid] | 753 nM | 700 nM | 13 nM |  | EC50 (rat osteocalcin promoter; [5]): 21 nM
9 | CCC(CC)(c1ccc(OCC(O)C(C)(C)C)c(C)c1)c1ccc2oc(C(=O)N(C)C)c(C)c2c1 (centres unmarked) [Ex 37, 5-{1-ethyl-1-[4-(2-hydroxy-3,3-dimethyl-butoxy)-3-methyl-phenyl]-propyl}-3-methyl-benzofuran-2-carboxylic acid dimethylamide] | 865 nM | > 1000 nM |  | 777 nM and 133 nM | 
10 | CCC(CC)(c1ccc(OCC(O)C(C)(C)C)c(C)c1)c1ccc2oc(C(=O)NCC(=O)O)c(C)c2c1 (centres unmarked) [Ex 39, [(5-{1-ethyl-1-[4-(2-hydroxy-3,3-dimethyl-butoxy)-3-methyl-phenyl]-propyl}-3-methyl-benzofuran-2-carbonyl)-amino]-acetic acid] | 419 nM | 19 nM | 0.4 nM | 138 nM | 
11 | CCC(CC)(c1ccc(OCC(O)C(C)(C)C)c(C)c1)c1cc2cc(C(=O)O)ccc2o1 (centres unmarked) [Ex. 4, 2-{1-Ethyl-1-[4-(2-hydroxy-3,3-dimethyl-butoxy)-3-methyl-phenyl]-propyl}-benzofuran-5-carboxylic acid] | 312 nM and 368 nM |  |  |  | 
12 | CCC(CC)(c1ccc(OCC(=O)C(C)(C)C)c(C)c1)c1cc2cc(C(=O)N(C)C)ccc2o1 [Ex. 5, 2-{1-[4-(3,3-Dimethyl-2-oxo-butoxy)-3-methyl-phenyl]-1-ethyl-propyl}-benzofuran-5-carboxylic acid dimethylamide] | 1200 nM |  | 106 nM |  | EC50 (rat osteocalcin promoter; [5]): 79 nM
13 | CCC(CC)(c1ccc(OCC(O)C(C)(C)C)c(C)c1)c1cc2cc(C(=O)NCC(=O)O)ccc2o1 (centres unmarked) [Ex. 8, [(2-{1-Ethyl-1-[4-(2-hydroxy-3,3-dimethyl-butoxy)-3-methyl-phenyl]-propyl}-benzofuran-5-carbonyl)-amino]-acetic acid] | 120 nM | 0.3 nM | 0.6 nM | 6 nM and 2 nM | 
14 | CCC(CC)(c1ccc(OCC(O)C(C)(C)C)c(C)c1)c1cc2cc(C(=O)Nc3nn[nH]n3)ccc2o1 (centres unmarked) [Ex. 13, 2-{1-Ethyl-1-[4-(2-hydroxy-3,3-dimethyl-butoxy)-3-methyl-phenyl]-propyl}-benzofuran-5-carboxylic acid (2H-tetrazol-5-yl)-amide] | 602 nM | > 1000 nM | 3 nM |  | 
